# Patent publication US9832994B2, “Thymol and totarol antibacterial composition” (COLGATE-PALMOLIVE COMPANY, priority 2011, dated 2017)
# Assays:
# E. coli = assay: Minimum Inhibition Concentration (MIC) and Fractional Inhibitory Concentration (FIC) against E. coli; format: cell-based; conditions: Escherichia coli, single active, tryptic soy broth, 96 well plate, 16-24 hours at 37° C
# Experimental: (§1) Minimum Inhibition Concentration (MIC) Serial dilutions of the active are combined with tryptic soy broth and 0.1 optical density of bacteria in a 96 well plate. The optical density of the mixture is measured after 16-24 hours at 37° C. An increase in optical density represents bacterial growth. The plate is analyzed to determine the minimum concentration needed to inhibit growth of bacteria. Numbers are reported in ppm. The MIC values are determined for thymol and totarol against E. Coli and S. aureus. The MIC dose response assay is conducted just as the MIC, however, one active's concentration is kept constant and the other active's concentration follows a two-fold serial dilution. Fractional Inhibition Concentration (FIC) The MIC values are also determined for thymol in the presence of totarol to determine the Fractional Inhibitory Concentration (FIC). This calculation accounts for the fractional activity of thymol and totarol within a MIC test. [formula] such that: [table]
# S. aureus = assay: Minimum Inhibition Concentration (MIC) and Fractional Inhibitory Concentration (FIC) against S. aureus; format: cell-based; conditions: Staphylococcus aureus, single active, tryptic soy broth, 96 well plate, 16-24 hours at 37° C
# Experimental: as §1
SMILES,MIC (E. coli) [µg/mL],MIC (S. aureus) [µg/mL]
"CC(C)c1c(O)ccc2c1CC[C@H]1C(C)(C)CCC[C@]21C [Totarol, totarol]",125,31.2
"Cc1ccc(C(C)C)c(O)c1 [Thymol, thymol]",125,–
